Values of other authors as cited in US20100280255A1, “PROCESS FOR MAKING SUBSTITUTED 2-AMINO-THIAZOLONES” (AMGEN INC., priority 2007, published 2010).

What was measured:
healthy human volunteers = healthy human volunteers treated
normal subjects = settings: ingestion

SMILES: CC1(C)[C@@H](OC(=O)CCC(=O)O)CC[C@]2(C)[C@H]3C(=O)C=C4[C@@H]5C[C@@](C)(C(=O)O)CC[C@]5(C)CC[C@@]4(C)[C@]3(C)CC[C@@H]12 [carbenoxolone]
- hepatic insulin sensitivity (healthy human volunteers): improved
- reduction of the intraocular pressure (normal subjects): 20%
- negative effect (of glucocorticoids) on bone nodule formation (bone nodule formation): blocked
